Source: PubChem BioAssay (NCI)
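In this assay, cells in 96-well plates receive the compound at five concentrations for 48 hours. Endpoints are linearly interpolated between the surrounding concentrations. GI50: concentration for 50% inhibition of growth. TGI denotes the concentration required for complete inhibition of growth.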

How the values were obtained:
Test in all cases: DTP human tumour cell line panel, 48 h
[1] = test system: 786-0 renal
[2] = test system: A498 renal
[3] = test system: A549 NSCLC
[4] = test system: ACHN renal
[5] = test system: BT-549 breast
[6] = test system: CAKI-1 renal
[7] = test system: CCRF-CEM leukemia
[8] = test system: COLO 205 colon
[9] = test system: DU-145 prostate
[10] = test system: EKVX NSCLC
[11] = test system: HCC-2998 colon
[12] = test system: HCT-116 colon
[13] = test system: HCT-15 colon
[14] = test system: HL-60(TB) leukemia
[15] = test system: HOP-62 NSCLC
[16] = test system: HOP-92 NSCLC
[17] = test system: HS 578T breast
[18] = test system: HT29 colon
[19] = test system: IGROV1 ovarian
[20] = test system: K-562 leukemia
[21] = test system: KM12 colon
[22] = test system: M14 melanoma
[23] = test system: MALME-3M melanoma
[24] = test system: MCF7 breast
[25] = test system: MDA-MB-231 breast
[26] = test system: MDA-MB-435
[27] = test system: MOLT-4 leukemia
[28] = test system: NCI-H226 lung
[29] = test system: NCI-H23 lung
[30] = test system: NCI-H460 lung
[31] = test system: NCI-H522 lung
[32] = test system: NCI/ADR-RES ovarian
[33] = test system: OVCAR-4 ovarian
[34] = test system: OVCAR-5 ovarian
[35] = test system: OVCAR-8 ovarian
[36] = test system: PC-3 prostate
[37] = test system: RPMI-8226 leukemia
[38] = test system: RXF 393 renal
[39] = test system: SF-268 CNS
[40] = test system: SF-295 CNS
[41] = test system: SF-539 CNS
[42] = test system: SK-MEL-2 melanoma
[43] = test system: SK-MEL-28 melanoma
[44] = test system: SK-MEL-5 melanoma
[45] = test system: SK-OV-3 ovarian
[46] = test system: SN12C renal
[47] = test system: SNB-19 CNS
[48] = test system: SNB-75 CNS
[49] = test system: SR leukemia
[50] = test system: SW-620 colon
[51] = test system: T-47D breast
[52] = test system: TK-10 renal
[53] = test system: U251 CNS
[54] = test system: UACC-257 melanoma
[55] = test system: UACC-62 melanoma
[56] = test system: UO-31 renal

Compound: Fc1ccc(-c2cc3nc(C(Cl)Cl)nc(-c4cccs4)n3n2)cc1
- GI50 [1]: 2310 nM
- TGI [1]: 7330 nM
- GI50 [2]: 1020 nM
- TGI [2]: 2360 nM
- GI50 [3]: 745 nM
- TGI [3]: 4920 nM
- GI50 [4]: 301 nM
- TGI [4]: 1210 nM
- GI50 [5]: > 100000 nM
- TGI [5]: > 100000 nM
- GI50 [6]: 1220 nM
- TGI [6]: 5040 nM
- GI50 [7]: 19600 nM
- TGI [7]: > 100000 nM
- GI50 [8]: 805 nM
- TGI [8]: 3120 nM
- GI50 [9]: 310 nM
- TGI [9]: 888 nM
- GI50 [10]: 1120 nM
- TGI [10]: 4070 nM
- GI50 [11]: 410 nM
- TGI [11]: 1590 nM
- GI50 [12]: 1530 nM
- TGI [12]: > 100000 nM
- GI50 [13]: 1100 nM
- TGI [13]: 3710 nM
- GI50 [14]: 290 nM
- TGI [14]: 2230 nM
- GI50 [15]: 454 nM
- TGI [15]: 3460 nM
- GI50 [16]: 537 nM
- TGI [16]: 2960 nM
- GI50 [17]: 1950 nM
- TGI [17]: 7030 nM
- GI50 [18]: 356 nM
- TGI [18]: 2050 nM
- GI50 [19]: 3070 nM
- TGI [19]: > 100000 nM
- GI50 [20]: 2530 nM
- TGI [20]: > 100000 nM
- GI50 [21]: 2200 nM
- TGI [21]: 17500 nM
- GI50 [22]: 4500 nM
- TGI [22]: > 100000 nM
- GI50 [23]: 7500 nM
- TGI [23]: > 100000 nM
- GI50 [24]: 369 nM
- TGI [24]: 4310 nM
- GI50 [25]: 505 nM
- TGI [25]: 3100 nM
- GI50 [26]: 1630 nM
- TGI [26]: 3450 nM
- GI50 [27]: 3560 nM
- TGI [27]: > 100000 nM
- GI50 [28]: > 100000 nM
- TGI [28]: > 100000 nM
- GI50 [29]: 1470 nM
- TGI [29]: 4000 nM
- GI50 [30]: 309 nM
- TGI [30]: 1190 nM
- GI50 [31]: > 100000 nM
- TGI [31]: > 100000 nM
- GI50 [32]: 1170 nM
- TGI [32]: 5660 nM
- GI50 [33]: 2390 nM
- TGI [33]: 6220 nM
- GI50 [34]: 1750 nM
- TGI [34]: 5310 nM
- GI50 [35]: 1210 nM
- TGI [35]: > 100000 nM
- GI50 [36]: 1190 nM
- TGI [36]: 4670 nM
- GI50 [37]: 847 nM
- TGI [37]: 5790 nM
- GI50 [38]: 403 nM
- TGI [38]: 1710 nM
- GI50 [39]: 1610 nM
- TGI [39]: 7990 nM
- GI50 [40]: 949 nM
- TGI [40]: 4790 nM
- GI50 [41]: 1050 nM
- TGI [41]: 2890 nM
- GI50 [42]: 3100 nM
- TGI [42]: 9660 nM
- GI50 [43]: 1860 nM
- TGI [43]: 3590 nM
- GI50 [44]: > 100000 nM
- TGI [44]: > 100000 nM
- GI50 [45]: 2210 nM
- TGI [45]: 13800 nM
- GI50 [46]: 36100 nM
- TGI [46]: > 100000 nM
- GI50 [47]: 664 nM
- TGI [47]: 4400 nM
- GI50 [48]: 284 nM
- TGI [48]: 2810 nM
- GI50 [49]: 3700 nM
- TGI [49]: > 100000 nM
- GI50 [50]: 1180 nM
- TGI [50]: 8610 nM
- GI50 [51]: 1600 nM
- TGI [51]: 7240 nM
- GI50 [52]: 3140 nM
- TGI [52]: 6880 nM
- GI50 [53]: 319 nM
- TGI [53]: 1980 nM
- GI50 [54]: 3040 nM
- TGI [54]: 9150 nM
- GI50 [55]: 2710 nM
- TGI [55]: 15000 nM
- GI50 [56]: 1260 nM
- TGI [56]: 5500 nM
